Test results: paper PMC10318143, “Optimized bisubstrate inhibitors for the actin N-terminal acetyltransferase NAA80” (Frontiers in Chemistry, 2023)
*1 amine or outer side, *2 acyl side, *3 side chain or, on linkers, in order; H or OH if unused. Where a SMILES comes first, the peptide text is derived from it. [ ]: non-standard residue; d: D form. The star is where a group is joined. Pantoyl(4-O-3'-P-ADP) = CC(C)(COP(=O)(O)OP(=O)(O)OC[C@H]1O[C@@H](n2cnc3c(N)ncnc32)[C@H](O)[C@@H]1OP(=O)(O)O)[C@@H](O)C(=O)*; NHCH2CH2SCH2CO = O=C(CSCCN[*:1])[*:2]; βAla = NCCC(=O)O

Molecular target: T1, MBP-hNAA80 (Homo sapiens, UniProt Q93015)
T1 construct: made in house; host or cells: Escherichia coli BL21 star
T1 sequence (Q93015 1-286): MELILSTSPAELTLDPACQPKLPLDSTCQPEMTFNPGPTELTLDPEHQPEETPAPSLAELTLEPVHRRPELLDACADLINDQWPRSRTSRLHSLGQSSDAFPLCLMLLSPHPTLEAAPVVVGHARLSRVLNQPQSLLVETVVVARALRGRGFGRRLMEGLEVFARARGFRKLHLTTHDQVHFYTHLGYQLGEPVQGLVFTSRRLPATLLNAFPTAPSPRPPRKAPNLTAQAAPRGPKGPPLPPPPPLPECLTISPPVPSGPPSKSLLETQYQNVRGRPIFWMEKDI
Assay: In vitro DTNB Nt-acetyltransferase inhibitor assay
Assay type: biochemical
Conditions: 300 μM Ac-CoA, 300 μM substrate peptide, Tris pH 8.5, triplicates, ± standard deviation
Method: The enzymatic activity of MBP-hNAA80 was measured using a 5,5′-dithiobis-(2-nitrobenzoic acid, DTNB) assay as described previously by Foyn et al. ([Foyn et al., 2017]) and Drazic et al. ([Drazic et al., 2018]) Briefly, the thiol group exposed in the enzymatic product CoA cleaves DTNB and produces 2-nitro-5-thiobenzonate (TNB^−) which ionize to TNB^2- in neutral or alkaline pH and is readily quantified by measuring the absorbance at 412 nm.
An in vitro DTNB assay with enzyme (10–600 nM), 300 μM Ac-CoA, 300 μM substrate peptide, acetylation buffer (Tris, pH 8.5), and at least nine different inhibitor concentrations ranging from 0 to 500 μM was used to calculate the IC50 value for each bisubstrate inhibitor applied in the assay. The reaction was carried out as previously described ([Drazic et al., 2018]; [Goris et al., 2018]), and within a timeframe of 15–50 min. All measurements were performed in triplicates.

Compound	IC50 [nM]
CC[C@H](C)[C@H](NC(=O)[C@H](CCC(=O)O)NC(=O)[C@H](CC(=O)O)NC(=O)[C@H](CC(=O)O)NC(=O)CSCCNC(=O)CCNC(=O)[C@H](O)C(C)(C)COP(=O)(O)OP(=O)(O)OC[C@H]1O[C@@H](n2cnc3c(N)ncnc32)[C@H](O)[C@@H]1OP(=O)(O)O)C(N)=O [CoA-DDEI-NH2, CoA-Ac-DDEI-NH2] ({Pantoyl(4-O-3'-P-ADP)-βAla}-[NHCH2CH2SCH2CO]DDEI-NH2)	2670 ± 670
CC[C@H](C)[C@H](NC(=O)[C@H](CCC(=O)O)NC(=O)[C@H](CCC(=O)O)NC(=O)[C@H](CC(=O)O)NC(=O)CSCCNC(=O)CCNC(=O)[C@H](O)C(C)(C)COP(=O)(O)OP(=O)(O)OC[C@H]1O[C@@H](n2cnc3c(N)ncnc32)[C@H](O)[C@@H]1OP(=O)(O)O)C(N)=O [CoA-DEEI-NH2, CoA-Ac-DEEI-NH2] ({Pantoyl(4-O-3'-P-ADP)-βAla}-[NHCH2CH2SCH2CO]DEEI-NH2)	1220 ± 330
CC(C)C[C@H](NC(=O)[C@H](CCC(=O)O)NC(=O)[C@H](CCC(=O)O)NC(=O)[C@H](CC(=O)O)NC(=O)CSCCNC(=O)CCNC(=O)[C@H](O)C(C)(C)COP(=O)(O)OP(=O)(O)OC[C@H]1O[C@@H](n2cnc3c(N)ncnc32)[C@H](O)[C@@H]1OP(=O)(O)O)C(N)=O [CoA-DEEL-NH2, CoA-Ac-DEEL-NH2] ({Pantoyl(4-O-3'-P-ADP)-βAla}-[NHCH2CH2SCH2CO]DEEL-NH2)	4730 ± 1430
CC[C@H](C)[C@H](NC(=O)[C@H](CC(=O)O)NC(=O)[C@H](CC(=O)O)NC(=O)[C@H](CCC(=O)O)NC(=O)CSCCNC(=O)CCNC(=O)[C@H](O)C(C)(C)COP(=O)(O)OP(=O)(O)OC[C@H]1O[C@@H](n2cnc3c(N)ncnc32)[C@H](O)[C@@H]1OP(=O)(O)O)C(N)=O [CoA-EDDI-NH2, CoA-Ac-EDDI-NH2] ({Pantoyl(4-O-3'-P-ADP)-βAla}-[NHCH2CH2SCH2CO]EDDI-NH2)	120 ± 50
CC[C@H](C)[C@H](NC(=O)[C@H](CCC(=O)O)NC(=O)[C@H](CC(=O)O)NC(=O)[C@H](CCC(=O)O)NC(=O)CSCCNC(=O)CCNC(=O)[C@H](O)C(C)(C)COP(=O)(O)OP(=O)(O)OC[C@H]1O[C@@H](n2cnc3c(N)ncnc32)[C@H](O)[C@@H]1OP(=O)(O)O)C(N)=O [CoA-EDEI-NH2, CoA-Ac-EDEI-NH2] ({Pantoyl(4-O-3'-P-ADP)-βAla}-[NHCH2CH2SCH2CO]EDEI-NH2)	760 ± 180
CC(C)C[C@H](NC(=O)[C@H](CCC(=O)O)NC(=O)[C@H](CC(=O)O)NC(=O)[C@H](CCC(=O)O)NC(=O)CSCCNC(=O)CCNC(=O)[C@H](O)C(C)(C)COP(=O)(O)OP(=O)(O)OC[C@H]1O[C@@H](n2cnc3c(N)ncnc32)[C@H](O)[C@@H]1OP(=O)(O)O)C(N)=O [CoA-EDEL-NH2, CoA-Ac-EDEL-NH2] ({Pantoyl(4-O-3'-P-ADP)-βAla}-[NHCH2CH2SCH2CO]EDEL-NH2)	150 ± 20
CC(C)C[C@H](NC(=O)[C@H](CCC(N)=O)NC(=O)[C@H](CC(=O)O)NC(=O)[C@H](CCC(=O)O)NC(=O)CSCCNC(=O)CCNC(=O)[C@H](O)C(C)(C)COP(=O)(O)OP(=O)(O)OC[C@H]1O[C@@H](n2cnc3c(N)ncnc32)[C@H](O)[C@@H]1OP(=O)(O)O)C(N)=O [CoA-EDQL-NH2, CoA-Ac-EDQL-NH2] ({Pantoyl(4-O-3'-P-ADP)-βAla}-[NHCH2CH2SCH2CO]EDQL-NH2)	850 ± 50
CC[C@H](C)[C@H](NC(=O)[C@H](CC(=O)O)NC(=O)[C@H](CCC(=O)O)NC(=O)[C@H](CCC(=O)O)NC(=O)CSCCNC(=O)CCNC(=O)[C@H](O)C(C)(C)COP(=O)(O)OP(=O)(O)OC[C@H]1O[C@@H](n2cnc3c(N)ncnc32)[C@H](O)[C@@H]1OP(=O)(O)O)C(N)=O [CoA-EEDI-NH2, CoA-Ac-EEDI-NH2] ({Pantoyl(4-O-3'-P-ADP)-βAla}-[NHCH2CH2SCH2CO]EEDI-NH2)	170 ± 40
CC(C)C[C@H](NC(=O)[C@H](CC(=O)O)NC(=O)[C@H](CCC(=O)O)NC(=O)[C@H](CCC(=O)O)NC(=O)CSCCNC(=O)CCNC(=O)[C@H](O)C(C)(C)COP(=O)(O)OP(=O)(O)OC[C@H]1O[C@@H](n2cnc3c(N)ncnc32)[C@H](O)[C@@H]1OP(=O)(O)O)C(N)=O [CoA-EEDL-NH2, CoA-Ac-EEDL-NH2] ({Pantoyl(4-O-3'-P-ADP)-βAla}-[NHCH2CH2SCH2CO]EEDL-NH2)	1760 ± 520
CC(C)C[C@H](NC(=O)[C@H](CCC(=O)O)NC(=O)[C@H](CCC(=O)O)NC(=O)[C@H](CCC(=O)O)NC(=O)CSCCNC(=O)CCNC(=O)[C@H](O)C(C)(C)COP(=O)(O)OP(=O)(O)OC[C@H]1O[C@@H](n2cnc3c(N)ncnc32)[C@H](O)[C@@H]1OP(=O)(O)O)C(N)=O [CoA-EEEL-NH2, CoA-Ac-EEEL-NH2] ({Pantoyl(4-O-3'-P-ADP)-βAla}-[NHCH2CH2SCH2CO]EEEL-NH2)	1160 ± 120
CC(C)C[C@H](NC(=O)[C@H](CCC(=O)O)NC(=O)[C@H](CO)NC(=O)[C@H](CCC(=O)O)NC(=O)CSCCNC(=O)CCNC(=O)[C@H](O)C(C)(C)COP(=O)(O)OP(=O)(O)OC[C@H]1O[C@@H](n2cnc3c(N)ncnc32)[C@H](O)[C@@H]1OP(=O)(O)O)C(N)=O [CoA-ESEL-NH2, CoA-Ac-ESEL-NH2] ({Pantoyl(4-O-3'-P-ADP)-βAla}-[NHCH2CH2SCH2CO]ESEL-NH2)	11500 ± 3230
CC(C)C[C@H](NC(=O)[C@H](CCC(=O)O)NC(=O)[C@H](CC(=O)O)NC(=O)[C@@H]1CCCN1C(=O)CSCCNC(=O)CCNC(=O)[C@H](O)C(C)(C)COP(=O)(O)OP(=O)(O)OC[C@H]1O[C@@H](n2cnc3c(N)ncnc32)[C@H](O)[C@@H]1OP(=O)(O)O)C(N)=O [CoA-PDEL-NH2, CoA-Ac-PDEL-NH2] ({Pantoyl(4-O-3'-P-ADP)-βAla}-[NHCH2CH2SCH2CO]PDEL-NH2)	13400 ± 2240

Molecular target: T1, MBP-hNAA80
Assay: not given
Parameters: method as in Goris et al., 2018
Conditions: DTNB assay; ± standard deviation; ref Goris et al., 2018; cited from earlier work

Compound	IC50 [nM]
CC[C@H](C)[C@H](NC(=O)[C@H](CC(=O)O)NC(=O)[C@H](CC(=O)O)NC(=O)[C@H](CC(=O)O)NC(=O)CSCCNC(=O)CCNC(=O)[C@H](O)C(C)(C)COP(=O)(O)OP(=O)(O)OC[C@H]1O[C@@H](n2cnc3c(N)ncnc32)[C@H](O)[C@@H]1OP(=O)(O)O)C(N)=O [CoA-DDDI-NH2, CoA-Ac-DDDI-NH2] ({Pantoyl(4-O-3'-P-ADP)-βAla}-[NHCH2CH2SCH2CO]DDDI-NH2)	380 ± 100
CoA-EEEI-NH2: previously reported bisubstrate inhibitor: coenzyme A conjugated via acetyl linker to tetrapeptide amide EEEI (γ-actin N-terminus) (not fully specified; N-terminal amine acylated with acetyl linker thioether-bonded to coenzyme A sulfur (CoA-S-CH2-CO-); C-terminal amide)	1160 ± 110
CoA-MDEL-NH2: previously reported bisubstrate inhibitor: coenzyme A conjugated via acetyl linker to tetrapeptide amide MDEL (not fully specified; N-terminal amine acylated with acetyl linker thioether-bonded to coenzyme A sulfur (CoA-S-CH2-CO-); C-terminal amide)	1260 ± 100
